{"source": "patent US20240131028A1", "about": "“CHEMOVACCINATION AGAINST PLASMODIUM INFECTION WITH SELECTIVE PLASMEPSIN X INHIBITORS” (Merck Sharp & Dohme LLC, priority 2021, published 2024)", "key": {"[1]": {"tested_on": "Plasmodium berghei sporozoites (PbmCherryLuci)", "experiment": "Chemovaccination of mice: sporozoite liver infection, oral treatment, mosquito bite challenge", "type": "in vivo, Plasmodium berghei in C57BL/6 mice", "procedure": "The indicated number of Plasmodium berghei sporozoites expressing mCherry and luciferase reporters (PbmCherryLuci) were inoculated intravenously, and compounds were administered to mice by oral gavage 36 and 48 hours after injection during liver infection. Plasmodium berghei liver infection levels and egress of parasites from the liver were measured by bioluminescence signal from the parasites using the luciferase reporter and an In Vivo Imaging System (IVIS, Perkin Elmer) at the peak of liver infection (52 hours post infection, hpi), during liver egress (55 hpi) as well as during the first round of blood infection (65 hpi). Initiation of blood infection was also measured by flow cytometry at 65 hpi using the mCherry reporter to determine the parasitemia of this first round of blood infection. These analyses allowed quantification of the efficacy of drug killing of parasites in the liver (52 hpi), preventing their egress from the liver (55 hpi) or preventing their successful infection of the blood (65 hpi). Mice were monitored by giemsa stained thin blood smears for the presence of parasites in the blood for 30 days post infection. If no blood infection was seen during the subsequent 30 days, the mice were declared cured of malaria infection thus indicating the chemoprophylactic activity of these compounds.\nThe chemoprophylactic activity of administered compounds is not to kill liver Plasmodium berghei parasites nor to prevent their egress from the liver, but rather that liver-derived merozoites were unable to initiate a blood infection in these mice. The parasites are thus attenuated by the administered compounds. Such parasite attenuation by genetic means is a powerful vaccination strategy, and as such cure of liver parasites by the compounds could simultaneously be considered as chemoprophylaxis as well as a chemovaccination strategy. Mice previously cured of liver infection with the administered compounds (Chemovaccinated) were challenged with bites from 10 PbmCherryLuci infected mosquitoes at the indicated times after cure of liver infection with the administered compounds to determine the level of immunity engendered by this chemovaccination approach.\nC57BL/6 mice were administered Example 2, as described in the general procedure. Thirty nine mice were infected with 40,000 sporozoites. Twenty-one mice were untreated. Six C57BL/6 mice were administered 2×100 mg/kg of Example 2. Six C57BL/6 mice were administered 2×200 mg/kg. Six C57BL/6 mice were administered 2×500 mg/kg. Example 2 dosed at 2×100 mg/kg cured four of six mice of their infection, as did mice dosed with 2×200 mg/kg of Example 2. […] These infections and treatments can be considered immunizations or chemovaccinations, since the parasite is attenuated by Example 2 and is unable to initiate the blood infection.\nAdditionally, the eight mice previously chemovaccinated with 2×100 mg/kg and 2×200 mg/kg of Example 2 were challenged three months later with bites from 10 mosquitoes infected with PbmCherryLuci sporozoites."}, "[2]": {"tested_on": "ring stage parasites (Pf)", "experiment": "Parasite lactate dehydrogenase (LDH) growth assay (Parasite Assay, PfLDH Assay)", "type": "cell-based, P. falciparum", "details": "Plasmodium falciparum"}, "[3]": {"molecular_target": "PfPMX (recombinant plasmepsin X) (Plasmodium falciparum, UniProt Q8IAS0)", "sequence (Q8IAS0 222-573)": "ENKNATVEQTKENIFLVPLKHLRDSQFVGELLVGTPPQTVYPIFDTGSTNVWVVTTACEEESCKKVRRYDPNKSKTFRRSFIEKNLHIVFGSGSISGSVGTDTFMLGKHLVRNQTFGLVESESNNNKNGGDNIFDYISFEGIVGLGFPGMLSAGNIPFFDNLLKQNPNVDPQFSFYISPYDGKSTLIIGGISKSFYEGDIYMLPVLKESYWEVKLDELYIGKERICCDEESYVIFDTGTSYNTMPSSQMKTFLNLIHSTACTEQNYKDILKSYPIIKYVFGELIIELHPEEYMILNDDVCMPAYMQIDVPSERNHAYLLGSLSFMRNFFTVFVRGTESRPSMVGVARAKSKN", "experiment": "FRET based assay for plasmepsin X cleavage of Rh2 peptide substrate", "type": "biochemical", "details": "AVG, N=2, pH 5.5", "procedure": "(§1) For cleavage assays, 10-point dilution series of the compounds (Compound EC50 determined by LDH assay) were prepared in 1536 well black low volume assay plates (Corning #3728) using an Acoustic Dispenser Echo555 (Labcyte). Appropriate volumes of 10 mM compound stocks were transferred into the assay plates starting at a top dose of 0.9 μM for PfPMX and 90 μM for PfPMIX in a 1:3 fold dilution series with 1% DMSO final concentration. IC50 values were analysed in Graphpad Prism software using a nonlinear regression four-parameter fit analysis. The equation used was sigmoidal dose response (variable slope), Y=bottom+[…].\n(§2) All compound potency assays were conducted in 5 μl total volume. […] Samples were excited at 340 nm and fluorescence emission measured at 490 nm using PHERAstar FSX plate reader (BMG). […]\n(§3) For cleavage assays, 10-point dilution series of the compounds, recombinant PMIX or PMX, and FRET peptide substrates were prepared in 1536 well plates. Samples were excited at 340 nm and fluorescence emission measured at 492 nm using an Envision fluorescence plate reader (Perkin-Elmer).\n(§4) IC50 values were calculated by Dotmatics 5.3 and Spotfire 7.11.1 software using a nonlinear regression four-parameter fit analysis. […]"}, "[4]": {"molecular_target": "T1, PfPMIX (recombinant plasmepsin IX) (Plasmodium falciparum, UniProt Q8ILG2)", "T1 sequence (Q8ILG2 1-627)": "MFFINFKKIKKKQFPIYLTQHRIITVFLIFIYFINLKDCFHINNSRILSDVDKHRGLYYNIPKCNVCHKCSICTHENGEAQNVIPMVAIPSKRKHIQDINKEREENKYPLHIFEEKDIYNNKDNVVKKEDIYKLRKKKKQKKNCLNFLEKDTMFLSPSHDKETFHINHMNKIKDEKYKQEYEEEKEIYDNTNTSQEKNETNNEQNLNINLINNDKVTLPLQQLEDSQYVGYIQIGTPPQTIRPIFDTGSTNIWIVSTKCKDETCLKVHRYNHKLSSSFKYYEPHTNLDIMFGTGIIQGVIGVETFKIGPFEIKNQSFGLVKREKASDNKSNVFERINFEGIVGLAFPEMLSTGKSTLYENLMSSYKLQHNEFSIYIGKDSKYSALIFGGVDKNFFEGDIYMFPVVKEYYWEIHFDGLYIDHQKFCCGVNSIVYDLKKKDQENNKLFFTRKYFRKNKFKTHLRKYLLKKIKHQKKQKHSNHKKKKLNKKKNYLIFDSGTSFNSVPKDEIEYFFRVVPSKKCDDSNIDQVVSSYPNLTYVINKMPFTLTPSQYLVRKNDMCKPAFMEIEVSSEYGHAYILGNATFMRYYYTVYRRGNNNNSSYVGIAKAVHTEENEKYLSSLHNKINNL", "experiment": "FRET based assay for plasmepsin IX cleavage of RON3 peptide substrate", "type": "biochemical", "details": "AVG, N=2, pH 5.5", "procedure": "as §1, §2, §3, §4"}, "[5]": {"details": "eight mice chemovaccinated once with 2×100 or 2×200 mg/kg, challenged three months later, bites from 10 infected mosquitoes"}}, "note": "Entries after “also recorded” stand apart in the source; their conditions may differ. Read-outs that look alike come from different tables or passages of the source.", "data": [{"smiles": "CCC1(CC)CC(=O)N([C@H](c2cccnc2)[C@H]2C[C@@H]2C(=O)N[C@H]2CC(C)(C)Oc3ccccc32)C(=N)N1", "note": "[Example 2, (1S,2S)-2-((S)-(4,4-diethyl-2-imino-6-oxotetrahydropyrimidin-1(2H)-yl)(pyridin-3-yl)methyl)-N—((S)-2,2-dimethylchroman-4-yl)cyclopropanecarboxamide]", "values": [{"measurement": "mice cured of their infection", "setting": "[1]; 2×100 mg/kg oral gavage 36 and 48 h after 40,000 sporozoites i.v., 30 days monitoring", "result": "four of six"}, {"measurement": "mice cured of their infection", "setting": "[1]; 2×200 mg/kg oral gavage 36 and 48 h after 40,000 sporozoites i.v., 30 days monitoring", "result": "four of six"}, {"measurement": "mice cured of their infection (chemoprophylaxis)", "setting": "[1]; 2×500 mg/kg oral gavage 36 and 48 h after 40,000 sporozoites i.v., 30 days monitoring, FIG. 1", "result": "cured all mice of their infection; also recorded: never got malaria"}, {"measurement": "protection from infection upon mosquito bite challenge after two immunizations", "setting": "[1]; 2×500 mg/kg twice, challenged 3 months later, bites from 10 infected mosquitoes, FIG. 2", "result": "completely protected from infection"}, {"measurement": "protection after two immunizations", "setting": "[1]; 2×500 mg/kg twice, mosquito bite challenge 3 months later, FIG. 2", "result": 100, "unit": "%"}, {"measurement": "development of malaria disease after challenge, one immunization", "setting": "[1]; [5]", "result": "all mice ultimately developed malaria disease"}, {"measurement": "infection upon mosquito bite challenge after one immunization", "setting": "[1]; [5]", "result": "showed a reduction in infection upon challenge"}, {"measurement": "cure of second infection (boost immunization)", "setting": "[1]; six mice, six weeks later 20,000 sporozoites, 2×500 mg/kg", "result": "cured them of this second infection"}, {"measurement": "EC50", "setting": "[2]; 72 h, Table 3, 72 hours growth, LDH readout, read-out: EC50", "result": 0.9, "unit": "nM"}, {"measurement": "EC50", "setting": "[2]; Table 6, AVG, N=3, read-out: PfLDH Assay (EC50)", "result": 0.86, "unit": "nM"}, {"measurement": "Ki", "setting": "[3]", "result": 0.026, "unit": "nM"}, {"measurement": "Ki", "setting": "[4]", "result": 5.95, "unit": "nM"}]}]}
